Earlier results on 1 molecule are cited in US20040235766A1 (priority 2001, published 2004).

Molecules are shown by their SMILES.

The target of this data set is DnaX protein (Escherichia coli, UniProt P06710). The conditions noted are these: read-out: dissociation constant.
Sequence of DnaX protein (P06710 whole entry): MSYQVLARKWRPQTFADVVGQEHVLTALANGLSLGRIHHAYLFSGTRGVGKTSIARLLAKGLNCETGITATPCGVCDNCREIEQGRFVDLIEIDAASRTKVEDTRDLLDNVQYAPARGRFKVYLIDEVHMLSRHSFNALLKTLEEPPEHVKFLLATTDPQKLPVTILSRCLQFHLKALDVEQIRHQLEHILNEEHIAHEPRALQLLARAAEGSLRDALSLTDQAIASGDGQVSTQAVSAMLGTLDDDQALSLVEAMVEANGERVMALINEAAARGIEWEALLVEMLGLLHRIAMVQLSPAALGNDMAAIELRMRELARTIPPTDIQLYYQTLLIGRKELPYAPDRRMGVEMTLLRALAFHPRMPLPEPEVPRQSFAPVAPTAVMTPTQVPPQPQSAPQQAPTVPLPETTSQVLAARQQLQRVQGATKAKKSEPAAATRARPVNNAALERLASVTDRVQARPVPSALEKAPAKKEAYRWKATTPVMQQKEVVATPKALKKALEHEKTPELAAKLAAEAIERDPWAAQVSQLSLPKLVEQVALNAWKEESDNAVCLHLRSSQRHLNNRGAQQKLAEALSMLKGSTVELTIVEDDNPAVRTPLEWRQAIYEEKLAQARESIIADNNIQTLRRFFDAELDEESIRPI

For the molecule `Nc1ncnc2c1ncn2[C@@H]1O[C@H](COP(=O)(O)OP(=O)(O)OP(=O)(O)O)[C@@H](O)[C@H]1O` [ATP], the Kd is ~2 µM.
